Measured values from patent US11506670B2, “Method of genome-wide direct identification of electrophile-sensing targets” (Cornell University, priority 2018, dated 2022).

Tests used:
[1] = molecular target: T1, PTEN (Homo sapiens, UniProt P60484); experiment: Immunofluorescence of endogenous PIP3 after PTEN-targeted T-REX; type: cell-based; conditions: T-REX HNEylation of Halo-PTEN
T1 construct: host or cells: HEK-293
Protocol: (i) Transient transfection using TransIT-2020. Split HEK-293 cells in four 35 mm glass-bottom dishes. For each dish, seeding ˜4×10^5 cells in 2.0 mL total cell culture medium should result in cells that are ˜40-50% confluent after 24 h, which represents optimal cell density. Too low and too high cell density may result in excessive cell death or poor transfection efficiency respectively. Higher cell density is also not optimal for imaging.
(ii) Transfect each plate with 2000 ng of Halo-PTEN plasmid. Transfect with TransIT-2020 following the manufacturer's protocol.
(iv) Treatment of cells with T-REX™ delivery photocaged precursor, photo-uncaging and cell fixing (TIMING: 8 hours). Treat the cells with photocaged precursor as described in Section 2, Step 39A.
(v) After shining light on the sample, incubate the plates at 37° C. for 10 hours. […]
(xviii) Images were analyzed using ImageJ software (NIH). Briefly, the average green fluorescence intensity (intensity of signal due to PIP3) for each cell was determined by drawing a free hand circle around the image. This was repeated for each condition such that 50-100 cells were analyzed each time from multiple different frames. A global average of the green fluorescence intensity was calculated for each condition, then these values were plotted and analyzed using prism. […]

[2] = test system: Ube2V2 ubiquitination and cellular Ub pools; experiment: Ubiquitination analysis by IP, K63-TUBE pulldown and western blot in HEK293T cells; type: cell-based, human
Protocol: Cells were lysed in 1×RIPA buffer containing in final concentrations 1× Protease inhibitor, 1 mM sodium orthovanadate and 1 mM PMSF, by rapid freeze-thaw (×3). Cell debris was removed and the supernatant was collected after centrifugation at 18,000×g for 20 min at 4° C. Protein concentration was determined using Bradford assay. 30-50 μg of total lysates were subjected to SDS-PAGE and the gel was transferred onto a PVDF membrane at 100 V for 1 h at 4° C. or at 40 V overnight at 4° C. Membrane was blocked with 10% milk and probed with various antibodies at the indicated dilutions (Table 4, above).
HEK 293T cells were seeded in 2×60 cm^2 plates. After the cells reached 60% confluence (˜18-24 h), the old media was replaced with 8 mL of fresh complete media. Cells were transfected with 7.5 μg of the designated Halo clone and 30 μL PEI (1 mg/mL) in 600 μL in Opti-MEM media for 24-36 h after which the cells were treated with 25 μM Ht-PreHNE for 2.5 h. Rinsing and light shining protocol were as described above. Cells were harvested, pooled, washed twice with chilled 1×DPBS and flash frozen. Cell lysis was performed in 100-200 μL per 1.5×10^6 cells of either: lysis buffer [containing in final concentrations 50 mM HEPES (pH 7.6), 150 mM NaCl, 1% Nonidet P-40 and 1× Roche cOmplete, mini, EDTA-free protease inhibitor cocktail] for Flag pull down; or RIPA buffer [containing in final concentrations 50 mM HEPES (pH 7.6), 150 mM NaCl, 1% Nonidet P-40, 0.1% SDS, 0.25% sodium deoxycholate, and 1× Roche cOmplete, mini, EDTA-free protease inhibitor cocktail] for HA pull down, followed by rapid freeze-thaw cycles (×3). Lysate was clarified by centrifugation at 18,000×g for 10 min at 4° C. Total protein concentration was determined using Bradford assay with BSA as standard. The lysate was subsequently diluted to 2 mg/mL with binding buffer containing in final concentrations 50 mM HEPES (pH 7.6), 150 mM NaCl, 1× Roche cOmplete, mini, EDTA-free protease inhibitor cocktail, and 0.1% Tween-20. This diluted lysate was subjected to either 50-100 μL bed volume of ANTI-FLAG® M2 affinity gel (A2220, Sigma) or monoclonal anti-HA-agarose (clone HA-7, A2095, Sigma) that had been pre-equilibrated with the binding buffer above. The sample was incubated with beads for 2-3 h at 4° C. by end-over-end rotation after which time the supernatant was removed post-centrifugation at 1000×g (anti-FLAG pull down) or 5000×g (anti-HA pull down) for 3 min. The beads were washed three times at 4° C. with 500 μL wash buffer containing in final concentrations 50 mM HEPES (pH 7.6), 150 mM NaCl, 1× Roche cOmplete, mini, EDTA-free protease inhibitor cocktail, and 0.1% Tween-20, using end-over-end rotation over 10 min during each wash. The bound protein was eluted by either incubating with 0.15 mg/mL 3× flag peptide for 2 h at 4° C. (anti-Flag pull down) or by boiling the beads at 98° C. for 10 min with 30 μL of 3× Laemmeli dye containing 6% βME (anti-HA pull down). The sample was subjected to SDS-PAGE and transferred to a PVDF membrane for western blot analysis described above.
Cells were grown and transfected as described above. After T-REX™ delivery, cells were harvested and lysed in 100-200 μL (˜1.5×10^6 cells) of lysis buffer [containing in final concentrations 50 mM HEPES (pH 7.6), 300 nM Biotin K63-TUBE, 150 mM NaCl, 5 mM EDTA, 3 mM 1,10-phenanthroline, 5 mM NEM, 20 μM PR-619, 1% Nonidet P-40 and 1× Roche cOmplete, mini, EDTA-free protease inhibitor cocktail] according to manufactures' manual (Biotin K63 TUBE, Lifesensors). Lysate was clarified by centrifugation at 18,000×g for 10 min at 4° C. Total protein concentration was determined using Bradford assay using BSA as standard. […]

T1 sequence (P60484 whole entry): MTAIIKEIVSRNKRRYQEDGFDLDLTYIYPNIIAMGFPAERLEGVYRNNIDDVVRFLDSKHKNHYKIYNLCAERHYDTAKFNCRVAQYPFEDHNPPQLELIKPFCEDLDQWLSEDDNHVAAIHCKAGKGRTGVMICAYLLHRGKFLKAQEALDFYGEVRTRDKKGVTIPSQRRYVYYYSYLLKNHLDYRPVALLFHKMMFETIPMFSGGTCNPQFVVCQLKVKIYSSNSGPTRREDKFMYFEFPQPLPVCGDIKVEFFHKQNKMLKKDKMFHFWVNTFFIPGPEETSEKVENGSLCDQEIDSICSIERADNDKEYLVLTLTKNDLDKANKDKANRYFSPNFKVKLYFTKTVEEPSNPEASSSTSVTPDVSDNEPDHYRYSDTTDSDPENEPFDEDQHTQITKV

`CCCCCC(O)/C=C/C=O` (stereo not shown) [HNE, 4-hydroxynonenal] was tested, and the “endogenous PIP3 level” value [1] was “upregulation of PIP3”, the “K63-linked total cellular Ub pools” value ([2]; HEK293T) was “did not alter K63-linked total cellular Ub pools” and the “pan cellular poly-Ub-pools” value ([2]; HEK293T) was “no effect”. For the same molecule, the “K63-linked ubiquitination of Ube2V2 upon T-REX delivery” value ([2]; cells expressing wt-Ube2V2, not C69S) was “significantly upregulated”.
